According to patent publication US12084418B2, “Small molecule inhibitors of G(alpha)i2 protein and uses thereof” (Clark Atlanta University, Inc., priority 2020, dated 2024):
“Also recorded” adds a separate entry of the source.

Assays:
PC3 cells [1] = test: Cell viability assay (MTS); assay type: cell-based, human; conditions: 24 hours
PC3 cells [2] = test: Transwell migration assay in PC3 cells; assay type: cell-based, human
Protocol: (§1) Human prostate cancer cell lines (DU145 and PC3) were obtained from American Type Culture Collection (ATCC) (Rockville, MD). DU145 and PC3 are androgen independent cell lines, derived from brain and bone metastatic sites, respectively. They were maintained in Minimum Essential Medium, supplemented with 5% FBS, in a 5% CO2 environment at 37° C. E006AA cells are derived from localized prostate cancer in a patient. These cells were maintained in Dulbecco's Modified Eagle Medium, supplemented with 5% FBS, in a 5% CO2 environment at 37° C.
For biological assays, the compounds were dissolved in DMSO at a starting concentration of 0.05 mM (compound 12) and 0.1 mM (compounds 9a-b, 13 and 14) and then diluted in culture media to the final concentrations used for the assays.
(§2) In vitro cell migration and invasion assays were conducted using 24-well transwell inserts (8 μm). The transwell inserts were coated with […] of rat tail collagen for migration assays, and with 50 μl of a 1:4 Matrigel/Coating buffer solution for invasion assays. Cells were suspended at the appropriate density in appropriate media and treated with the inhibitors, at specific concentrations. For migration assays, EGF was used as a chemoattractant (10 ng/ml) for PC3, DU145, E006AA and SKOV3 cells; 10% FBS was used for MCF7 cells. The plates were incubated at 37° C. for 5 hours (DU145, PC3 and SKOV3), 24 hours (E006AA) or 48 hours (MCF7) for migration assays, and 48 hours for invasion assays. After fixation, the cells were stained with 3 ng/ml of DAPI and images of five non-overlapping fields were captured using Axiovert 200M, Carl Zeiss (Thornwood, NY) microscope. The number of stained nuclei were determined with automatic counting using image analysis software (ZEN 2012; Carl Zeiss). Results were expressed as migration or invasion index defined as: the average number of cells per field for test substance/the average number of cells per field for the medium control.

PC3 cells [3] = test: Cell viability assay (MTS); assay type: cell-based, human; conditions: compound 10 μM, 24 hours
Protocol: FIG. 3C is a graph depicting a viability study of PC3 cells treated for 24 hours with inhibitor compounds 9b, 13 and 14, at 10 μM. MTS assays were conducted for 4 hours and the results were expressed as % of viable treated cells against the control cells. Each bar represents mean±SEM (n=3).
Cell viability assays were performed using CellTiter 96® AQueous One Solution Cell Proliferation Assay (MTS) from Promega, according to the manufacture's protocol. Briefly, 5.0×10^4 cells/well were plated in a 96 well plates and incubated in a 5% CO2 environment at 37° C. overnight. After 24 hours the medium was replaced with fresh medium, containing several compounds at the appropriate concentrations. Diluted DMSO was used as a control. MTS assays were performed after 24 hours and the absorbance read at 490 nm, using a spectrophotometer.

PC3 cells [4] = test: Transwell migration assay in PC3 cells; assay type: cell-based, human; conditions: absence of EGF stimulus
E006AA cells = test: Transwell migration assay in E006AA cells; assay type: cell-based, human; conditions: compound 10 μM
Protocol: as §1
as §2, with “The plates were incubated at 37° C. for 5 hours (DU145, PC3 and SKOV3), 24 hours (E006AA) or 48 hours (MCF7) for migration assays, and 48 hours for invasion assays. After fixation, the cells were stained with 3 ng/ml of DAPI and images of five non-overlapping fields were captured using Axiovert 200M, Carl Zeiss (Thornwood, NY) microscope.” left out

Gαi2 = biological target: T1, Gαi2 (Homo sapiens, UniProt P04899); test: Immunoprecipitation of active Gαi and Western blot with anti-Gαi2 antibody in PC3 cells; assay type: cell-based; conditions: for activation of Gαi2 (conversion from GDP- to GTP-state): stimulus not given
T1 construct: endogenous in cells; host or cells: PC3 cells
Protocol: PC3 cells (3×10^6 cell/dish) were incubated with or without inhibitor compound 14 (10 μM) for 30 minutes and then treated with EGF (10 ng/ml) or oxytocin (200 nmol/L) for additional 30 minutes. Cells were lysed in ice-cold cell lysis buffer (Cell Signaling Technology) and snap-frozen in liquid nitrogen. Total cell lysates, containing approximately 1000 μg of proteins, were used for immunoprecipitation. The lysates were incubated with 1 μg of anti-active Gαi antibody, overnight at 4° C. Immunocomplexes were collected by centrifugation after incubation with protein A/G-Sepharose beads for 48 h (Santa Cruz Biotechnology) and were analyzed by Western blot analysis with specific anti-Gαi2 antibody (Abcam).
Western blot analyses were performed. Briefly, protein samples (30-35 μg proteins) were separated on 10% SDS-PAGE gels and transferred to polyvinylidene difluoride (PVDF) membranes (Millipore Corp., Bedford, Massachusetts). After blocking, the membranes were incubated with several primary antibodies, at appropriate dilutions (1:500 for Giα2; 1:3000 for α-tubulin) overnight at 4° C. After washing, the blots were incubated with appropriate secondary antibodies and developed in ECL mixture, using Syngene PXi Imaging System, according to the manufacture's manual. α-tubulin was used as loading control.

DU145 cells = test: Transwell migration assay in DU145 cells; assay type: cell-based, human; conditions: compound 10 μM
Protocol: as §1
as §2, with “The plates were incubated at 37° C. for 5 hours (DU145, PC3 and SKOV3), 24 hours (E006AA) or 48 hours (MCF7) for migration assays, and 48 hours for invasion assays. After fixation, the cells were stained with 3 ng/ml of DAPI and images of five non-overlapping fields were captured using Axiovert 200M, Carl Zeiss (Thornwood, NY) microscope.” left out

SKOV3 cells = test: Transwell migration assay in SKOV3 cells; assay type: cell-based, human; conditions: compound 10 μM, EGF 10 ng/ml, 5 hours
Protocol: (§3) Human breast adenocarcinoma cell line MCF7 and human ovarian adenocarcinoma cell line SKOV3 were obtained from American Type Culture Collection (ATCC) (Rockville, MD) and maintained in Dulbecco's Modified Eagle Medium, supplemented with 5% FBS, in a 5% CO2 environment at 37° C.
as §2, with “After fixation, the cells were stained with 3 ng/ml of DAPI and images of five non-overlapping fields were captured using Axiovert 200M, Carl Zeiss (Thornwood, NY) microscope.” left out

DU145-Gαi2-Q205L cells = test: Transwell migration assay in DU145 cells overexpressing constitutively active Gαi2 (Gαi2-Q205L); assay type: cell-based, human
Protocol: DU145 cells were seeded in 6-well plates at a density of 2.0×10^5 cells per well and transfected with pcDNA3.1-EV and pcDNA3.1-Gαi2-Q205L, using ViaFect™ transfection reagent, according to the manufacturer's protocol. Briefly, media with no antibiotics (200 μl/well) containing 2 μg of plasmids DNA were mixed with the transfection reagent (6 μl/well) and, after 20 minutes, the mixtures were added drop by drop on the cells and the cells were cultured for 48 hours. Then the cells were harvested and used for several assays.
as §2

MCF7 cells = test: Transwell migration assay in MCF7 cells; assay type: cell-based, human; conditions: compound 10 μM, 10% FBS, 48 hours
Protocol: as §3
as §2, with “After fixation, the cells were stained with 3 ng/ml of DAPI and images of five non-overlapping fields were captured using Axiovert 200M, Carl Zeiss (Thornwood, NY) microscope.” left out

PC3 cells [5] = test: Transwell (Matrigel) invasion assay in PC3 cells; assay type: cell-based, human; conditions: compound 10 μM, 48 hours
Protocol: as §2

[6] = compound 10 μM, EGF 10 ng/ml, 5 hours
[7] = compound 50 μM, in presence of EGF
[8] = compound 100 μM, in presence of EGF

T1 sequence (P04899 whole entry): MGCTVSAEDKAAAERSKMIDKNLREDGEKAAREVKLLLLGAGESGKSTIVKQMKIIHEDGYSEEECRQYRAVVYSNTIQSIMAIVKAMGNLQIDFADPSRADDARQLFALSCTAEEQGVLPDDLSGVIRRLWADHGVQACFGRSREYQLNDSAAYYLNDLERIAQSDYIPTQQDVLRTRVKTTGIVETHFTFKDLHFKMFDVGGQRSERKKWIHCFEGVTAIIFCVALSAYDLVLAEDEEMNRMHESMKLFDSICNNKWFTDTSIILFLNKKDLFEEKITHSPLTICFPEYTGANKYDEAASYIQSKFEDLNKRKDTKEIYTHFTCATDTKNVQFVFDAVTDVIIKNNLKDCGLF

Compound | cell viability (PC3 cells [1]; compound 50 μM) | cell viability (PC3 cells [1]; compound 100 μM) | migratory capability of PC3 cells (migration index) (PC3 cells [2]; [6]) | migratory capability of PC3 cells (migration index) (PC3 cells [2]; [7]) | migratory capability of PC3 cells (migration index) (PC3 cells [2]; [8]) | cell viability (PC3 cells [3]) | migratory capability of PC3 cells (migration index) (PC3 cells [4]; compound 50 μM) | migratory capability of PC3 cells (migration index) (PC3 cells [4]; compound 100 μM) | EGF-induced migration of E006AA cells (E006AA cells) | activation of Gαi2 (conversion from GDP- to GTP-state) (Gαi2) | EGF-induced migration of DU145 cells (DU145 cells) | migration of SKOV3 cells (SKOV3 cells) | levels of active Gαi2 after stimulation with OXT (Gαi2; PC3 cells, OXT 200 nmol/L 30 minutes, compound 14 at 10 μM) | EGF-stimulated cell migration of DU145-Gαi2-Q205L cells (DU145-Gαi2-Q205L cells; compound 10 μM, EGF 10 ng/ml) | basal cell migration of DU145-Gαi2-Q205L cells (DU145-Gαi2-Q205L cells; compound 10 μM, basal) | migration of DU145-Gαi2-Q205L cells (DU145-Gαi2-Q205L cells; stimulus and concentration not stated at the place (FIG. 5B)) | migration of MCF7 cells (MCF7 cells) | invasive capability of PC3 cells (invasion index) (PC3 cells [5]; in response to EGF 10 ng/ml) | invasive capability of PC3 cells (invasion index) (PC3 cells [5]; in response to FBS (5%))
C/C(=N\c1ccc(O)cc1)c1sc2ccccc2c1O [Compound 12, (E)-2-(1-((4-hydroxyphenyl)imino)ethyl)benzo[b]thiophen-3-ol, reference compound] | cytotoxic | cytotoxic | had no effect on the migration | caused a reduction in the migratory capability | caused a reduction in the migratory capability | had no effect on cell viability | caused a reduction in the migratory capability | caused a reduction in the migratory capability | – | – | – | – | – | – | – | – | – | – | –
C/C(=N\c1ccc(O)cc1)c1cc2ccccc2s1 [Compound 13, (E)-4-((1-(benzo[b]thiophen-2-yl)ethylidene)amino)phenol] | cytotoxic | cytotoxic | significantly decreased EGF-induced migratory capability; also recorded: significantly reduced the migratory capability | reduced the migratory capability | reduced the migratory capability | had no effect on cell viability; also recorded: did not affect cell viability | – | – | reduced the EGF-induced migration | impaired activation of Gαi2 | reduced the EGF-induced migration | – | – | – | – | – | – | – | –
C/C(=N\c1ccc(O)cc1)c1cc2ccccc2n1C [Compound 14, (E)-4-((1-(1-methyl-1H-indol-2-yl)ethylidene)amino)phenol] | cytotoxic | cytotoxic | significantly decreased EGF-induced migratory capability; also recorded: significantly reduced the migratory capability | reduced the migratory capability | reduced the migratory capability | had no effect on cell viability; also recorded: did not affect cell viability | – | – | reduced the EGF-induced migration | reduced activation of Gαi2; also recorded: impaired activation of Gαi2 | reduced the EGF-induced migration | impaired the migratory capability; also recorded: significantly reduced migration | the levels of active Gαi2 were reduced | attenuation | attenuation | significantly reduced migration | impaired the migratory capability; also recorded: significantly reduced migration | significantly reduced; also recorded: inhibited | significantly reduced
